This is an account of results in US8859550B2, “Heterocyclic inhibitors of histamine receptors for the treatment of disease” (Kalypsys, Inc., priority 2011, dated 2014).

What all share (type): physicochemical
The nature of series [1]: Solid state form conversion on storage at ambient conditions. As to conditions: solid state, ambient conditions. From the text:
Two crystal forms of Compound 1 Mesylate Salt were obtained from these experiments. Compound 1 Mesylate Salt, Form 1 is a monomesylate reversible monohydrate solid state form that was obtained from ten of the twelve crystallization experiments conducted. […] Compound 1 Mesylate Salt Form 2 was obtained by slow evaporation of gummy solids at ambient temperature in two of twelve screening experiments. Compound 1 Mesylate Salt Form 2 was obtained as a mixture of Form 1 and Form 2 in one of twelve crystallization experiments.
A Compound 1 Mesylate salt form screen was conducted involving about 160 crystallization experiments in 48 solvents and aqueous mixtures was performed conducted as previously described (vide supra). Compound 1 Mesylate Salt Form 1, the reversible monohydrate initially discovered in during the crystallization experiments cited above, was obtained from a variety of solvents and crystallization conditions, including 25 slurry-ripening, six cooling, 16 evaporative and four vapor diffusion experiments. […] Samples of Compound 1, Mesylate Salt Forms 2-5 converted to Compound 1 Mesylate Salt Form 1 in solid state within one week at ambient conditions.

The nature of series [2]: Gravimetric Vapor Sorption (GVS). As to conditions: 25° C. As for the experimental part: GVS: GVS experiments were conducted on a SurfaceMeasurement Systems DVS-HT at 25° C. The instrument was operated in step mode and the relative humidity (RH) was increased in 10% RH increments from 40% RH to 90% RH, then decreased from 90% RH to 0% RH, then increased a second time from 0% RH to 90% RH, then decreased from 90% RH to 0% RH. An extra step at 75% RH was included in each cycle. The mass equilibrium criterion was set at 0.005% change in mass over time (dm/dt). A minimum step time of 10 minutes and a maximum step time of 240 minutes were specified.

Series [3] in a line: Solubility in aqueous acetate buffer (80 mM). As to conditions: aqueous acetate buffer (80 mM) at pH3.5-4.5.
Series [4] is described as follows: Equilibrium solubility study. As to conditions: for solubility thermodynamic: thermodynamic from solid, read-out: Filtrate Concentration (equilibrium solubility). Here is the method: Equilibrium solubility experiments were conducted for Compound 2 Monohydrochloride Form 1, Compound 2 Monomesylate Form 1 and Compound 2 Monocitrate Form 1 salts in water and pH-5 acetate buffer solution. The results of the equilibrium solubility study are summarized in Table 26 (where “a” indicates FTIR and PXRD spectra of both samples were distinctly different from the known forms of Compound 2 or Compound 2 Monocitrate salt Form 1).

Read-outs that look alike come from different tables or passages of the source.

As to `CN1CCN(c2ncc(-c3cccs3)n3nnnc23)CC1.CS(=O)(=O)O` [Compound 1 Mesylate Salt Form 1, 8-(4-Methylpiperazin-1-yl)-5-(thiophen-2-yl)tetrazolo[1,5-a]pyrazine Mesylate Monohydrate], the crystal form stability result in series [1] is “the most, and the only, stable crystal form”. Moreover, the “hygroscopicity (GVS)” value in series [2] was “not hydroscopic”. For the same compound, the “GVS loss of water” value in series [2] (below 20% RH) is listed as approximately 4.30%. For the same compound, the GVS water content in series [2] (between 20-90% RH) is given as approximately 4.3%. Besides, in series [3], the “improvement in solubility over Compound 1” value is on record as more than 5 fold. For the same compound, the solubility thermodynamic in series [4] (0.2 M acetate buffer, pH 5, aqueous buffer, 0.2M Acetate Buffer (pH5), final pH 4.17, residual solid Free Base) was 58.2 mg/mL; in series [4] (water, pH 3.51, water, Water, final pH 3.51, Dissolved), more than 100 mg/mL. Moreover, in series [4] (Water, final pH 3.51, Dissolved, Mesylate Monohydrate), the “Filtrate Concentration (equilibrium solubility)” value was more than 100 mg/mL. Moreover, the solubility in series [4] (water, aqueous) is more than 100 mg/mL.

A word on the solubility: it is the dissolved amount per volume that the medium holds. Higher therefore signals a readily soluble substance.
